Data from ChEMBL document CHEMBL4229437, “Polyamine-containing etoposide derivatives as poisons of human type II topoisomerases: Differential effects on topoisomerase IIα and IIβ” (Bioorg Med Chem Lett, 2018).
Active and inactive are the calls of the source. No cut-off for these calls is given here.

How the values were obtained:
[1] = target: DNA topoisomerase 2-alpha (Homo sapiens) (UniProt P11388); assay: (§1) Poison activity at recombinant human topoisomerase-2alpha expressed in Saccharomyces cerevisiae assessed as stabilization of DNA-enzyme cleavage complex by measuring concentration required to generate 10% double-stranded DNA breaks using supercoiled pBR322 DNA as substrate incubated for 6 mins measured after 30 mins by ethidium bromide staining based agarose gel electrophoresis method
DNA topoisomerase 2-alpha (Homo sapiens), sequence (P11388 whole entry): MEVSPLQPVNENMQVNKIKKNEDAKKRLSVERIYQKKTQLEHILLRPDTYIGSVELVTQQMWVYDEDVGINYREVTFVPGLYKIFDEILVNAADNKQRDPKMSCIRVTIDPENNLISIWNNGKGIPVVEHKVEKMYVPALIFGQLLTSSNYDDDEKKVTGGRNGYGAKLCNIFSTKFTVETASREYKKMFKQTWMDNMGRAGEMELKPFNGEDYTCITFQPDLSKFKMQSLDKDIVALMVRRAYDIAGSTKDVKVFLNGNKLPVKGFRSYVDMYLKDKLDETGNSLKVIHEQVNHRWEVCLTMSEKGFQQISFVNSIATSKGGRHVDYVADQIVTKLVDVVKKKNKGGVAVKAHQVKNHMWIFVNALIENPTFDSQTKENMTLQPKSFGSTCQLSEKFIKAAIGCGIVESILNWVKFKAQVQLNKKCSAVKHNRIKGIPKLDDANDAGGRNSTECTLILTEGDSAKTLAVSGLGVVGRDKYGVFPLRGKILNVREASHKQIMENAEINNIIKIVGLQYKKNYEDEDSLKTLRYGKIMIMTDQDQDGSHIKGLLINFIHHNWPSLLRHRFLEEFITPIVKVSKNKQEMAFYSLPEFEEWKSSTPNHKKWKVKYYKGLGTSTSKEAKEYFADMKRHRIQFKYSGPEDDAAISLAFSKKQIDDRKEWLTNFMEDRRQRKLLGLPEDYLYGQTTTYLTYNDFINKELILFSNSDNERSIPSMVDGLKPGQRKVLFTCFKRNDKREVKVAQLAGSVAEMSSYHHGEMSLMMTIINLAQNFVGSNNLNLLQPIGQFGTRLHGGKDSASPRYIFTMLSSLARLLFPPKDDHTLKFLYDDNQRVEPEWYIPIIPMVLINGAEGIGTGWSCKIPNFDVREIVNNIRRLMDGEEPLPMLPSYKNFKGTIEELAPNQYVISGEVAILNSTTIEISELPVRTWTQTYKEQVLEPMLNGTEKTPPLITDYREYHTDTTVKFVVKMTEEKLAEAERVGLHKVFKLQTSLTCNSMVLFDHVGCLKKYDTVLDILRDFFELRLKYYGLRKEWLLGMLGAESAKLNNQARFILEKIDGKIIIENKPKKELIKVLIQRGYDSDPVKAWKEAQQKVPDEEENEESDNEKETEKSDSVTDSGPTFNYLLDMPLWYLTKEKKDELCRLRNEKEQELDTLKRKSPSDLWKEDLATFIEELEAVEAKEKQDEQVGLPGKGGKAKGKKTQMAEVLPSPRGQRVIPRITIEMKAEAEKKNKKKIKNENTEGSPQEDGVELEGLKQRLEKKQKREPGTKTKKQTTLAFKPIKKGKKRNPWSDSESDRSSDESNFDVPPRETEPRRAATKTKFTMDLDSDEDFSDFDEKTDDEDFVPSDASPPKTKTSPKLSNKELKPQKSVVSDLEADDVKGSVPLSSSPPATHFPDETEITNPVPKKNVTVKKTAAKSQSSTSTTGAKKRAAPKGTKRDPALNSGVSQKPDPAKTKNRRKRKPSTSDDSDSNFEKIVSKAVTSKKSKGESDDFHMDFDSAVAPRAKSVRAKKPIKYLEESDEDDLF

[2] = target: DNA topoisomerase 2-beta (Homo sapiens) (UniProt Q02880); assay: as §1, with “topoisomerase-2beta” for “topoisomerase-2alpha”, “at 25 uM” for “by measuring concentration required to generate 10% double-stranded DNA breaks”
DNA topoisomerase 2-beta (Homo sapiens), sequence (Q02880 whole entry): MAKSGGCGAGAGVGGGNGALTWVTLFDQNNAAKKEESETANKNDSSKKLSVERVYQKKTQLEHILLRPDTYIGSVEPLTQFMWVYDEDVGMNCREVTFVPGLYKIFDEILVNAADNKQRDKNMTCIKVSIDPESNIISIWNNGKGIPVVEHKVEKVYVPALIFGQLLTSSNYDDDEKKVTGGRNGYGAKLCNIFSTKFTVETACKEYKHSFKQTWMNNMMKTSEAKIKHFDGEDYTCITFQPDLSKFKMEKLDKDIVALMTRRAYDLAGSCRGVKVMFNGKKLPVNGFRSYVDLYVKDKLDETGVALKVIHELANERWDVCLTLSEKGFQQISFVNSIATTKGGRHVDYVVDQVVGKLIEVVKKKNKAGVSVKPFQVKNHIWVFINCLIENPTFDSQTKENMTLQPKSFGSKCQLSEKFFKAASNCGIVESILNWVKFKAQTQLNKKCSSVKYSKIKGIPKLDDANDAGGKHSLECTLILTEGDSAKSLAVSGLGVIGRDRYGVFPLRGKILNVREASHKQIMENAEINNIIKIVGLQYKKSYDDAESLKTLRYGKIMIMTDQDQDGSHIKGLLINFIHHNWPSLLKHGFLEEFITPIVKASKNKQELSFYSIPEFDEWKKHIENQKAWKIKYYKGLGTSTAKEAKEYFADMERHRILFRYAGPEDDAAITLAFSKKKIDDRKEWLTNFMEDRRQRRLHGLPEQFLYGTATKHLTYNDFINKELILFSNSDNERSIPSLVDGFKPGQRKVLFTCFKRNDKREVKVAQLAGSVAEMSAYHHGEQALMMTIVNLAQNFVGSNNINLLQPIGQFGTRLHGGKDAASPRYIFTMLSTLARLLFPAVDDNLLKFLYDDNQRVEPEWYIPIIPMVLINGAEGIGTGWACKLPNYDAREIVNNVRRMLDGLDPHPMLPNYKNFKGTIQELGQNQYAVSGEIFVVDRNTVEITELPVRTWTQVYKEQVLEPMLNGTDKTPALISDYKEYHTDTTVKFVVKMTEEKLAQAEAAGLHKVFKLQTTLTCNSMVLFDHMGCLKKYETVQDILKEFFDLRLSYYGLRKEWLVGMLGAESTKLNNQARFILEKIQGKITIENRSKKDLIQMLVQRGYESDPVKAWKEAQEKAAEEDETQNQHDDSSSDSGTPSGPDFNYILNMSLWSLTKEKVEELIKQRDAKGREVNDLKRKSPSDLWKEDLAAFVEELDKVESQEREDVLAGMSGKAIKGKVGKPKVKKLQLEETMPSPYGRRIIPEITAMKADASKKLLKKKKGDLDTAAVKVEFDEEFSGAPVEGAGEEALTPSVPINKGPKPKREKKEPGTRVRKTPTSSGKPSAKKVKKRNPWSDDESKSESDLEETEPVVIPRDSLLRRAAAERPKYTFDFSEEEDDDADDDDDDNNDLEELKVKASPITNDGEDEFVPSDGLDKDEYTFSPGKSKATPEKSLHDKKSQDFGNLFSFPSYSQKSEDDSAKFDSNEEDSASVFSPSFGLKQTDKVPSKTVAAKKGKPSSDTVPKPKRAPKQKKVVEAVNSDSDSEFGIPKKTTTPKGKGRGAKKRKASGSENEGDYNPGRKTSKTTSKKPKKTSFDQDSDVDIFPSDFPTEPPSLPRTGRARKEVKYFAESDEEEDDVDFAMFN

[3] = target: DNA topoisomerase 2-alpha (Homo sapiens) (UniProt P11388); assay: (§2) Inhibition of recombinant human topoisomerase-2alpha expressed in Saccharomyces cerevisiae assessed as increase in total DNA cleavage at 25 uM using supercoiled pBR322 DNA as substrate incubated for 6 mins measured after 30 mins by ethidium bromide staining based agarose gel electrophoresis method relative to etoposide
[4] = target: DNA topoisomerase 2-alpha (Homo sapiens) (UniProt P11388); assay: as §1, with “at 25 uM” for “by measuring concentration required to generate 10% double-stranded DNA breaks”
[5] = target: DNA topoisomerase 2-alpha (Homo sapiens) (UniProt P11388); assay: as §2, with “single-stranded” for “total”
[6] = target: DNA topoisomerase 2-beta (Homo sapiens) (UniProt Q02880); assay: as §2, with “topoisomerase-2beta” for “topoisomerase-2alpha”, “single-stranded” for “total”
[7] = target: DNA topoisomerase 2-alpha (Homo sapiens) (UniProt P11388); assay: as §2, with “double-stranded” for “total”
[8] = target: DNA topoisomerase 2-beta (Homo sapiens) (UniProt Q02880); assay: as §1, with “topoisomerase-2beta” for “topoisomerase-2alpha”
[9] = target: DNA topoisomerase 2-alpha (Homo sapiens) (UniProt P11388); assay: Poison activity at recombinant human topoisomerase-2alpha expressed in Saccharomyces cerevisiae assessed as inhibition of DNA religation using single-stranded DNA at 25 uM incubated for 6 mins by agarose gel electrophoresis method
[10] = target: DNA topoisomerase 2-beta (Homo sapiens) (UniProt Q02880); assay: Poison activity at recombinant human topoisomerase-2beta expressed in Saccharomyces cerevisiae assessed as inhibition of DNA religation using single-stranded DNA at 25 uM incubated for 6 mins by agarose gel electrophoresis method
[11] = target: DNA topoisomerase 2-beta (Homo sapiens) (UniProt Q02880); assay: Inhibition of recombinant human topoisomerase-2beta expressed in Saccharomyces cerevisiae assessed as stabilization of DNA-enzyme cleavage complex at 25 uM incubated for 6 mins followed by incubation in drug-free buffer by agarose gel electrophoresis method
[12] = target: DNA topoisomerase 2-beta (Homo sapiens) (UniProt Q02880); assay: as §2, with “topoisomerase-2beta” for “topoisomerase-2alpha”
[13] = target: DNA topoisomerase 2-alpha (Homo sapiens) (UniProt P11388); assay: Inhibition of recombinant human topoisomerase-2alpha expressed in Saccharomyces cerevisiae assessed as stabilization of DNA-enzyme cleavage complex at 25 uM incubated for […] followed by incubation in drug-free buffer by agarose gel electrophoresis method
[14] = target: DNA topoisomerase 2-beta (Homo sapiens) (UniProt Q02880); assay: as §2, with “topoisomerase-2beta” for “topoisomerase-2alpha”, “double-stranded” for “total”
[15] = target: DNA topoisomerase 2-beta (Homo sapiens) (UniProt Q02880); assay: Inhibition of recombinant human topoisomerase-2beta expressed in Saccharomyces cerevisiae assessed as stabilization of DNA-enzyme cleavage complex at 50 uM incubated for 6 mins followed by incubation in drug-free buffer by agarose gel electrophoresis method
[16] = target: DNA topoisomerase 2-alpha (Homo sapiens) (UniProt P11388); conditions: 100 uM
Description: Inhibition of recombinant human topoisomerase-2alpha expressed in Saccharomyces cerevisiae assessed as stabilization of DNA-enzyme cleavage complex at 100 uM incubated for 10 mins followed by incubation in drug-free buffer by agarose gel electrophoresis method

[17] = target: DNA topoisomerase 2-alpha (Homo sapiens) (UniProt P11388); conditions: 100 uM; remark: listed apart in the source
Description: Poison activity at recombinant human topoisomerase-2alpha expressed in Saccharomyces cerevisiae assessed as inhibition of DNA religation using single-stranded DNA at 100 uM incubated for 6 mins by agarose gel electrophoresis method

Row | Compound | Activity [1] | Activity [2] | fold change (FC) [3] | Activity [4] | fold change (FC) [5] | fold change (FC) [6] | fold change (FC) [7] | Activity [8] | inhibition [9] | inhibition [10] | inhibition [11] | fold change (FC) [12] | inhibition [13] | fold change (FC) [14] | inhibition [15] | inhibition [16] | inhibition [17]
1 | COc1cc([C@@H]2c3cc4c(cc3[C@@H](NC(=O)CNCCCNCCCCNCCCN)[C@H]3COC(=O)[C@H]23)OCO4)cc(OC)c1O | 4.8 µM | inactive | 1.49 | inactive | 0.92 | 2.68 | 2.48 | 4.3 µM | Active | Active | Active | 7.85 | Active | 10.3 | – | – | –
2 | COc1cc([C@@H]2c3cc4c(cc3[C@@H](O[C@@H]3O[C@@H]5CO[C@@H](C)O[C@H]5[C@H](O)[C@H]3O)[C@H]3COC(=O)[C@H]23)OCO4)cc(OC)c1O | > 100 µM | – | – | – | – | – | – | > 100 µM | – | Active | – | – | – | – | Active | Active | Active
3 | COc1cc([C@@H]2c3cc4c(cc3[C@@H](NC(=O)CNCCCNCCCCN)[C@H]3COC(=O)[C@H]23)OCO4)cc(OC)c1O | 54.1 µM | inactive | 1.28 | inactive | 1.14 | 4.92 | 1.52 | 11 µM | Active | Active | Active | 6.8 | Active | 7.69 | – | – | –
4 | COc1cc([C@@H]2c3cc4c(cc3[C@@H](NC(=O)CNCCCOCCCCOCCCN)[C@H]3COC(=O)[C@H]23)OCO4)cc(OC)c1O | 98.9 µM | inactive | 0.88 | inactive | 0.87 | 3.63 | 0.9 | 49.9 µM | Active | Active | Active | 3.13 | Active | 2.9 | – | – | –
5 | COc1cc([C@@H]2c3cc4c(cc3[C@@H](NC(=O)CNCCCNCCNCCCN)[C@H]3COC(=O)[C@H]23)OCO4)cc(OC)c1O | 20.5 µM | inactive | 1.38 | inactive | 1.06 | 4.27 | 1.93 | 25.3 µM | Active | Active | Active | 4.54 | Active | 4.66 | – | – | –
6 | COc1cc([C@@H]2c3cc4c(cc3[C@@H](NC(=O)CNCCCNCCCNCCCN)[C@H]3COC(=O)[C@H]23)OCO4)cc(OC)c1O | 12.2 µM | inactive | 1.52 | inactive | 1.17 | 2.21 | 2.13 | 8.1 µM | Active | Active | Active | 6.03 | Active | 7.85 | – | – | –
7 | CNCCCNCCCCNCCCNCC(=O)N[C@@H]1c2cc3c(cc2[C@@H](c2cc(OC)c(O)c(OC)c2)[C@H]2C(=O)OC[C@@H]21)OCO3 | 13.2 µM | inactive | 1.66 | inactive | 1.37 | 2.61 | 2.16 | 7.5 µM | Active | Active | Active | 6.51 | Active | 8.36 | – | – | –
